Results: PMC10272112 (Nature Communications, 2023)
Like-named read-outs stand apart in the source and are kept apart here.

Biological target: T1, HDAC6 (Homo sapiens, UniProt Q9UBN7)
T1 sequence (Q9UBN7 1-1215): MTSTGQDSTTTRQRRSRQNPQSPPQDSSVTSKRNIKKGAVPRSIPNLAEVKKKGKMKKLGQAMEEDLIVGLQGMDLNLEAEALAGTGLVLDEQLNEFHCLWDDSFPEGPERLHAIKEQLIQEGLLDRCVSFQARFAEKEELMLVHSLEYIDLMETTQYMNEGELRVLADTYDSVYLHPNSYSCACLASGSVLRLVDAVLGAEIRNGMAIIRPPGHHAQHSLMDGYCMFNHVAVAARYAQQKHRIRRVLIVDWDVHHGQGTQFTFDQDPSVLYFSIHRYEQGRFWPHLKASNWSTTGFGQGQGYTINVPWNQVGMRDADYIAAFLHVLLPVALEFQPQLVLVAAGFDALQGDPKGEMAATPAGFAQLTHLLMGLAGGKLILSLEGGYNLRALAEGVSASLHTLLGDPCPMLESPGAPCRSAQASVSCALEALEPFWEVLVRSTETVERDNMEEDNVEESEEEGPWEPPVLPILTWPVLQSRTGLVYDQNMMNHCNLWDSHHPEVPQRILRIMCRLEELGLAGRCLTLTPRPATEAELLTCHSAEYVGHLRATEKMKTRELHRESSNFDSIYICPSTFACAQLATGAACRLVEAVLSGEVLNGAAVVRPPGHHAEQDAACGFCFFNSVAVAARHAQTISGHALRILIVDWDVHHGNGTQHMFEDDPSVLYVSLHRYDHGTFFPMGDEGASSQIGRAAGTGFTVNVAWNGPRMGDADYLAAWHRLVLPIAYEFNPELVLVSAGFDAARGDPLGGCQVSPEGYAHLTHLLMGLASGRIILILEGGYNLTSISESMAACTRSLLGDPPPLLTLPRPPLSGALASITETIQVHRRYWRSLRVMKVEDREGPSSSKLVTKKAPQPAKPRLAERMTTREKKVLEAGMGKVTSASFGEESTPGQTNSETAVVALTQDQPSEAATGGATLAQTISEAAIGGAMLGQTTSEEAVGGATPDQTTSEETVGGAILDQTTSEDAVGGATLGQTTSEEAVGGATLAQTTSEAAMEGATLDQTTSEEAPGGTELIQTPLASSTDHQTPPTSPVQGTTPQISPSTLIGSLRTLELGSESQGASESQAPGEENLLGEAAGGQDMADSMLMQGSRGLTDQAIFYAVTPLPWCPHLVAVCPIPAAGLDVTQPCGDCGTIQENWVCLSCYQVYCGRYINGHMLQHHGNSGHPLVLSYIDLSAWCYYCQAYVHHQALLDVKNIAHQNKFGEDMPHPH
Test: Chemoproteomic competition pulldown assay
Assay type: binding
Parameters: endogenous in cells; host or cells: SW620, MV4-11, A549 lysates
Description: To identify proteins directly bound by lipoic acid, we employed a chemoproteomic competition assay. Briefly, (R/S)-LA was immobilized on sepharose beads via an amidation reaction to form an affinity matrix (abbreviated as iL; Fig. 1a). This affinity matrix can be incubated with cell lysate to pull down potential LA or LM target proteins and identify these targets via bottom-up proteomics. In a competition assay, free LA or LM were incubated with lysate at different concentrations before pulling down and quantifying target proteins. […] (Fig. 1b, see “Methods” for details). […] The lysate buffer used in this assay contains 1 mM DTT to mimic the intracellular reductive milieu and to reduce lipoic acid and LM. […] Additional competition assays performed in lung adenocarcinoma cell A549 lysate also identified HDAC1, HDAC2, and HDAC6 as targets (Supplementary Fig. 1b). Amongst the three cell lines tested, HDACs were the only confidently identified targets across the 1500–3000 proteins quantified in these assays. […] We validated the results by analogous pulldown competition assays using two other affinity matrices prepared via the immobilization of either the HDAC inhibitor Quisinostat (iQ) and an analog of the class IIa HDAC inhibitor Bürli’s 31[14] (iC)[12]. We have previously shown that these affinity matrices specifically bind to the active sites of HDACs and have used them for HDACi selectivity profiling. Indeed, binding of (R/S)-LA and (R/S)-LM to HDAC1, HDAC2, HDAC3, HDAC6, and, to a lesser extent, HDAC8 was confirmed in these assays (Supplementary Fig. 1c, d). No binding to class IIa HDACs or the recently discovered common HDAC inhibitor off-target MBLAC2 was observed (Supplementary Fig. 1e)[12]. […] This observation might reflect electrostatic repulsion between the HDAC10 active site gate-keeper glutamic acid residues[15],[16] and the terminal carboxylic acid of LA.
To assess the degree of protein depletion from lysates by the affinity matrix, a second pulldown (PDPD) with fresh beads was performed using the unbound protein fraction from the vehicle control flow through. The beads were washed (1 × 1 mL of lysis buffer without inhibitors and only 0.4% Igepal, 2 × 2 mL of lysis buffer without inhibitors and only 0.2% Igepal), and captured proteins were denatured with 8 M urea buffer, alkylated with 55 mM chloroacetamide and digested with Trypsin according to standard procedures. The resulting peptides were desalted on a C18 filter plate (Sep-Pak® tC18 µElution Plate, Waters), vacuum dried, and stored at −20 °C until LC–MSMS measurement.
For the competition assays, relative binding was calculated based on the protein intensity ratio to the DMSO control for every single inhibitor concentration. EC50 values were derived from a four-parameter log-logistic regression with variable slope (constrain: bottom > 0). The obtained EC50 values were multiplied with a protein-dependent correction factor (cf), resulting in the apparent Kd value (Kd^app). The correction factor is determined by calculating the ratio of the protein intensity of two consecutive pulldowns of the vehicle control sample[13]. Targets of the inhibitors were annotated manually according to published procedures[12],[46],[47]. […] Additionally, the number of unique peptides and MSMS counts per condition were taken into account. Positive target binding across several independent experiments performed with different cell lysates further substantiated our confidence for a true positive drug-target binding event.

[1] = iL, SW620, read-out: pKdapp (converted)
[2] = iQ, SW620, read-out: pKdapp (converted)
[3] = iQ, SW620 lysate, log10 M -3.52288
[4] = iQ, SW620 lysate, log10 M -4.52288
[5] = iQ, SW620 lysate, log10 M -5.52288
[6] = iQ, SW620 lysate, log10 M -6.52288

Compound: O=C(O)CCCCC1CCSS1 (racemic) [(R/S)-LA, (R/S)-lipoic acid]
- Kd (iL, A549, read-out: pKdapp (converted)): 5.01 µM
- relative binding vs DMSO (iL, A549 lysate, log10 M -4): 0.05504
- relative binding vs DMSO (iL, A549 lysate, log10 M -4.52288): 0.1518
- relative binding vs DMSO (iL, A549 lysate, log10 M -5): 0.3845
- relative binding vs DMSO (iL, A549 lysate, log10 M -5.52288): 0.7285
- relative binding vs DMSO (iL, A549 lysate, log10 M -6): 0.9189
- relative binding vs DMSO (iL, A549 lysate, log10 M -6.52288): 1.088
- relative binding vs DMSO (iL, A549 lysate, log10 M -7.52288): 1.108
- relative binding vs DMSO (iL, A549 lysate, log10 M -8): 1.195
- relative binding vs DMSO (iL, A549 lysate, log10 M -8.52288): 0.9886
- Kd [1]: 10 µM
- relative binding vs DMSO (iL, SW620 lysate, log10 M -3.52288): 0.1052
- relative binding vs DMSO (iL, SW620 lysate, log10 M -4): 0.1618
- relative binding vs DMSO (iL, SW620 lysate, log10 M -4.52288): 0.8697
- relative binding vs DMSO (iL, SW620 lysate, log10 M -5): 1.623
- relative binding vs DMSO (iL, SW620 lysate, log10 M -5.52288): 0.9452
- relative binding vs DMSO (iL, SW620 lysate, log10 M -6): 1.514
- relative binding vs DMSO (iL, SW620 lysate, log10 M -6.52288): 0.6952
- relative binding vs DMSO (iL, SW620 lysate, log10 M -7): 1.008
- Kd [2]: 10 µM
- relative binding vs DMSO [3]: 0.2137
- relative binding vs DMSO (iQ, SW620 lysate, log10 M -4): 0.2383
- relative binding vs DMSO [4]: 0.4233
- relative binding vs DMSO (iQ, SW620 lysate, log10 M -5): 0.664
- relative binding vs DMSO [5]: 0.8619
- relative binding vs DMSO (iQ, SW620 lysate, log10 M -6): 0.8804
- relative binding vs DMSO [6]: 1.0379
- relative binding vs DMSO (iQ, SW620 lysate, log10 M -7): 0.9144

Compound: NC(=O)CCCCC1CCSS1 (racemic) [(R/S)-LM, (R/S)-lipoamide]
- relative binding vs DMSO (iL, MV4-11 lysate, log10 M -3.52288): 0.06003
- relative binding vs DMSO (iL, MV4-11 lysate, log10 M -4): 0.1375
- relative binding vs DMSO (iL, MV4-11 lysate, log10 M -4.52288): 0.3195
- relative binding vs DMSO (iL, MV4-11 lysate, log10 M -5): 0.763
- relative binding vs DMSO (iL, MV4-11 lysate, log10 M -5.52288): 0.7012
- relative binding vs DMSO (iL, MV4-11 lysate, log10 M -6): 0.776
- relative binding vs DMSO (iL, MV4-11 lysate, log10 M -6.52288): 0.9127
- relative binding vs DMSO (iL, MV4-11 lysate, log10 M -7): 0.9147
- Kd (iL, MV4-11 lysate, read-out: Kd app): 21 µM
- Kd (iL, MV411, read-out: pKdapp (converted)): 10 µM
- Kd [1]: 15.8 µM
- Kd [2]: 10 µM
- relative binding vs DMSO [3]: 0.1855
- relative binding vs DMSO (iQ, SW620 lysate, log10 M -4): 0.2172
- relative binding vs DMSO [4]: 0.4129
- relative binding vs DMSO (iQ, SW620 lysate, log10 M -5): 0.6644
- relative binding vs DMSO [5]: 0.9409
- relative binding vs DMSO (iQ, SW620 lysate, log10 M -6): 1.062
- relative binding vs DMSO [6]: 0.8866
- relative binding vs DMSO (iQ, SW620 lysate, log10 M -7): 0.9139
